Values of other authors in patent US20020160058A1, “Antialopecia agent” (priority 1996, published 2002).

Tested on: alopecia induced by adriamycin
Details: reported

## tocopherol
Oral administration
  effect on alopecia induced by adriamycin: preventive effect
  effect on alopecia induced by the combined use of adriamycin with other anticancer agents: no effect
